Experimental findings from EP4356929A1, “ANTIFIBROTIC FORMULATION FOR OPHTHALMIC TREATMENT” (Universität Rostock, priority 2022, dated 2024) are described below.

The nature of the series: physchem. To be noted: aqueous gamma-cyclodextrin 200 mg/ml. The series is classed as physicochemical. The protocol:
This hydrogel can then be loaded with JM, which forms a host-guest complex with the yCD molecules Fig. 2 the amount of chlorine in various EPI crosslinked hydrogel samples was quantified. The EPI contains chlorine, but the final crosslinked hydrogel should not. Gels washed at 37°C in DI water were given either three 1-hour washes (short wash) or two 1-hour washes followed by an overnight wash with water or Ethanol. […] Fig. 3 the maximum solubility of Josamycin in aqueous solutions of various yCD concentrations was measured. Soluble JM was measured by HPLC. […] The amount of JM released was measured over time and expressed as a percent of the total JM initially loaded into the gel. Most of the JM was released within the first 96 hrs. […] On the left are molded and washed gels, which have been completely dried. On the right is a fully rehydrated gel which is almost completely transparent. […] The total drug loading was linearly related to the amount of josamycin in the loading solution.
The first formulation developed is a solution of yCD and JM. Solutions of JM and yCD can be made up to 18.9 mg/ml JM with 200 mg/ml yCD. These solutions are formed by simply mixing the JM and yCD in water or PBS until dissolved. This liquid formulation can then be sterilized via syringe filter before use. The solution is suitable for application to the eye as an eye drop or injection during or after surgery. […]

Molecule `CO[C@@H]1[C@@H](O[C@@H]2O[C@H](C)[C@@H](O[C@H]3C[C@@](C)(O)[C@@H](OC(=O)CC(C)C)[C@H](C)O3)[C@H](N(C)C)[C@H]2O)[C@@H](CC=O)C[C@@H](C)[C@@H](O)/C=C/C=C/C[C@@H](C)OC(=O)C[C@H]1OC(C)=O` [JM, josamycin] had a solubility of at most 18.9 mg/mL.

One may read the solubility as the concentration that dissolves in the medium under given conditions.
